Test results from article PMC4864979 (Bioorganic & medicinal chemistry, 2015).

System: 50 kinases
Experiment: Profiling against 50 kinases, radioactive filter-binding assay
Assay type: biochemical
Conditions: duplicate (Supplementary Figure 1)

selectivity throughout the kinome: good selectivity throughout the kinome
SMILES: NCCCNc1nc(Nc2cccc(NC(=O)N3CCCC3)c2)ncc1I [Compound 3, N-(3-((4-((3-aminopropyl)amino)-5-iodopyrimidin-2-yl)amino)phenyl)pyrrolidine-1-carboxamide]
